Key:
MV4-11 [1] = assay: Antiproliferative activity against human MV4-11 cells assessed as cell growth inhibition incubated for 72 hrs by CellTiter-Glo assay; format: functional, cell-based; conditions: MV4-11, 72 h
[2] = molecular target: T1, Bromodomain-containing protein 4 (Homo sapiens, UniProt O60885); assay: Inhibition of Alexa647 labelled MS417 binding to his tagged BRD4 BD1 (unknown origin) by TR-FRET assay
[3] = molecular target: T1, Bromodomain-containing protein 4; assay: Inhibition of recombinant his tagged BRD4 BD1 (unknown origin) at 2 uM by Alpha screen assay relative to control
MV4-11 [4] = assay: Antiproliferative activity against human MV4-11 cells assessed as cell growth inhibition at 1 uM incubated for 72 hrs by CellTiter-Glo assay relative to control; format: functional
SNB-75 = assay: Antiproliferative activity against human SNB-75 cells assessed as cell growth inhibition measured after 72 hrs by CellTiter-Glo assay; format: functional
MV4-11 [5] = assay: Antitumor activity against human MV4-11 cells xenografted BALB/c nude mouse model assessed as tumor growth inhibition at 20 mg/kg, po QD administered for 28 consecutive days; format: functional; conditions: MV4-11, 672 h, time 28 day, read-out: TGI
HCT-15 = assay: Antiproliferative activity against human HCT-15 cells assessed as cell growth inhibition measured after 72 hrs by CellTiter-Glo assay; format: functional
NCI-H522 = assay: Antiproliferative activity against human NCI-H522 cells assessed as cell growth inhibition measured after 72 hrs by CellTiter-Glo assay; format: functional
MDA-MB-468 = assay: Antiproliferative activity against human MDA-MB-468 cells assessed as cell growth inhibition measured after 72 hrs by CellTiter-Glo assay; format: functional
UACC-62 = assay: Antiproliferative activity against human UACC-62 cells assessed as cell growth inhibition measured after 72 hrs by CellTiter-Glo assay; format: functional
HL-60(TB) = assay: Antiproliferative activity against human HL-60(TB) cells assessed as cell growth inhibition measured after 72 hrs by CellTiter-Glo assay; format: functional
CAKI-1 = assay: Antiproliferative activity against human CAKI-1 cells assessed as cell growth inhibition measured after 72 hrs by CellTiter-Glo assay; format: functional
[6] = Metabolic stability in monkey liver microsomes assessed as intrinsic clearance incubated for 1 hr by LC-MS/MS analysis; format: ADME, Macaca mulatta, Microsome; conditions: rhesus monkey, read-out: CLH
[7] = Metabolic stability in human liver microsomes assessed as elimination half life incubated for 1 hr by LC-MS/MS analysis; format: ADME, Microsome; conditions: read-out: beta t1/2
[8] = Metabolic stability in dog liver microsomes assessed as elimination half life incubated for 1 hr by LC-MS/MS analysis; format: ADME, Canis lupus familiaris, Microsome; conditions: read-out: beta t1/2
[9] = Metabolic stability in rat liver microsomes assessed as intrinsic clearance incubated for 1 hr by LC-MS/MS analysis; format: ADME, Microsome; conditions: read-out: CLH
[10] = Metabolic stability in human liver assessed as intrinsic clearance incubated for 1 hr by LC-MS/MS analysis; format: ADME, tissue-based; conditions: read-out: CLH
[11] = Metabolic stability in dog liver microsomes assessed as intrinsic clearance incubated for 1 hr by LC-MS/MS analysis; format: ADME, Canis lupus familiaris, Microsome; conditions: read-out: CLH
[12] = Metabolic stability in human liver microsomes assessed as intrinsic clearance incubated for 1 hr by LC-MS/MS analysis; format: ADME, Microsome; conditions: read-out: CLH
[13] = Metabolic stability in rat liver microsomes assessed as elimination half life incubated for 1 hr by LC-MS/MS analysis; format: ADME, Microsome; conditions: read-out: beta t1/2
[14] = Metabolic stability in monkey liver assessed as intrinsic clearance incubated for 1 hr by LC-MS/MS analysis; format: ADME, tissue-based, Macaca mulatta; conditions: rhesus monkey, read-out: CLH
[15] = Metabolic stability in monkey liver microsomes assessed as elimination half life incubated for 1 hr by LC-MS/MS analysis; format: ADME, Macaca mulatta, Microsome; conditions: rhesus monkey, read-out: beta t1/2
[16] = Metabolic stability in dog liver assessed as intrinsic clearance incubated for 1 hr by LC-MS/MS analysis; format: ADME, tissue-based, Canis lupus familiaris; conditions: read-out: CLH
[17] = Metabolic stability in rat liver assessed as intrinsic clearance incubated for 1 hr by LC-MS/MS analysis; format: ADME, tissue-based; conditions: read-out: CLH

COc1ccc(-c2c(-c3nc4cc(N5CCN(C)CC5)ccc4[nH]3)[nH]c(C)c2C(C)=O)cc1
IC50 (MV4-11 [1]): 223 nM

CCS(=O)(=O)Nc1ccc(Oc2ccc(F)cc2F)c(-c2cn(C)c(=O)c3[nH]ccc23)c1 [MIVEBRESIB]
IC50 [2]: 11 nM

CC(=O)c1c(C)[nH]c(-c2nc3cc(N4CCN(C)CC4)ccc3[nH]2)c1-c1ccc2c(c1)OCCO2
IC50 (MV4-11 [1]): 157 nM

CC(=O)c1c(C)[nH]c(-c2nc3cc(N4CCN(C)CC4)ccc3[nH]2)c1C(C)C
inhibition [3]: 98.9%

CC(=O)c1c(C)[nH]c(-c2nc3cc(N4CCN(C)CC4)ccc3[nH]2)c1-c1ccc(Cl)cc1
IC50 (MV4-11 [1]): 291 nM

CC(=O)c1c(C)[nH]c(-c2nc3cc(N4CCN(C)CC4)ccc3[nH]2)c1-c1ccc(C)cc1
IC50 (MV4-11 [1]): 176 nM

CC(=O)c1c(C)[nH]c(-c2nc3cc(N4CCN(C)CC4)ccc3[nH]2)c1C1CCCCC1
inhibition [3]: 79%

CC(=O)c1c(C)[nH]c(-c2nc3cc(N4CCN(C)CC4)ccc3[nH]2)c1-c1ccc(N(C)C)cc1
IC50 (MV4-11 [1]): 192 nM

CC(=O)c1c(C)[nH]c(-c2nc3cc(N4CCN(C)CC4)ccc3[nH]2)c1-c1ccc2ccccc2c1
IC50 (MV4-11 [1]): 556 nM

CC(=O)c1c(C)[nH]c(-c2nc3c([nH]2)=CCC(Nc2ccnc(Cl)n2)C=3)c1C (stereo not drawn)
inhibition [3]: 91.1%

CC(=O)c1c(C)[nH]c(-c2nc3cc(N4CCOCC4)ccc3[nH]2)c1C
inhibition at 1 µM (MV4-11 [4]): 21.2%

COc1cccc(-c2c(-c3nc4cc(N5CCN(C)CC5)ccc4[nH]3)[nH]c(C)c2C(C)=O)c1
IC50 (MV4-11 [1]): 284 nM

CCN(CC)c1ccc2[nH]c(-c3[nH]c(C)c(C(C)=O)c3C)nc2c1
inhibition at 1 µM (MV4-11 [4]): 19.7%

CC(=O)c1c(C)[nH]c(-c2nc3cc(N4CCN(C)CC4)ccc3[nH]2)c1-c1cccc(Cl)c1
IC50 (MV4-11 [1]): 321 nM

Cc1sc2c(c1C)C(c1ccc(Cl)cc1)=N[C@@H](CC(=O)Nc1ccc(O)cc1)c1nnc(C)n1-2 [BIRABRESIB]
GI50 (SNB-75): 29.6 nM | inhibition in vivo at 20 mg/kg (MV4-11 [5]): 63.5% | GI50 (HCT-15): 179 nM | GI50 (NCI-H522): 262 nM | GI50 (MDA-MB-468): 212 nM | GI50 (UACC-62): 162 nM | GI50 (HL-60(TB)): 179 nM | GI50 (CAKI-1): 94.6 nM

COc1ccc(-c2c(-c3nc4cc(N5CCN(C)CC5)ccc4[nH]3)[nH]c(C)c2C(C)=O)cc1OC
IC50 (MV4-11 [1]): 426 nM

COc1ccccc1-c1c(-c2nc3cc(N4CCN(C)CC4)ccc3[nH]2)[nH]c(C)c1C(C)=O
inhibition at 1 µM (MV4-11 [4]): 25.3%

Cc1sc2c(c1C)C(c1ccc(Cl)cc1)=N[C@@H](CC(=O)OC(C)(C)C)c1nnc(C)n1-2
IC50 (MV4-11 [1]): 157 nM

CSc1ccc(-c2c(-c3nc4cc(N5CCN(C)CC5)ccc4[nH]3)[nH]c(C)c2C(C)=O)cc1
IC50 (MV4-11 [1]): 187 nM

CC(=O)c1c(C)[nH]c(-c2ccc3c4ccccc4n(C)c3c2)c1C
inhibition [3]: 84%

CC(=O)c1c(C)[nH]c(-c2nc3ccccc3s2)c1C
inhibition [3]: 73.6%

CC(=O)c1c(C)[nH]c(-c2nc3cc(N4CCC(CO)CC4)ccc3[nH]2)c1C
IC50 (MV4-11 [1]): 1560 nM

CC(=O)c1c(C)[nH]c(-c2nc3cc(N4CCN(C)CC4)ccc3[nH]2)c1-c1ccc2c(c1)OCO2
IC50 (MV4-11 [1]): 161 nM

CCc1c(-c2nc3cc(N4CCN(C)CC4)ccc3[nH]2)[nH]c(C)c1C(C)=O
IC50 (MV4-11 [1]): 617 nM

CC(=O)c1c(C)[nH]c(-c2nc3cc(N4CCN(C)CC4)ccc3[nH]2)c1-c1cnn(C)c1
inhibition at 1 µM (MV4-11 [4]): 53%

CC(=O)c1c(C)[nH]c(-c2nc3cc(N4CCOCC4)ccc3[nH]2)c1-c1ccccc1
microsomal CLint [6]: 43.8 µL/min/mg | half-life [7]: 61.4 min | half-life [8]: 44.6 min | microsomal CLint [9]: 68 µL/min/mg | CLint scaled [10]: 21.4 mL/min/kg | microsomal CLint [11]: 31.1 µL/min/mg | microsomal CLint [12]: 22.6 µL/min/mg | IC50 (MV4-11 [1]): 318 nM | half-life [13]: 20.4 min | CLint scaled [14]: 63.1 mL/min/kg | half-life [15]: 31.6 min | CLint scaled [16]: 44.8 mL/min/kg | CLint scaled [17]: 122 mL/min/kg

CCS(=O)(=O)N1CCN(c2ccc3[nH]c(-c4[nH]c(C)c(C(C)=O)c4C)nc3c2)CC1
IC50 (MV4-11 [1]): 1640 nM

CC(=O)c1c(C)[nH]c(-c2cnc3ccccc3c2)c1C
inhibition [3]: 85.5%

CC(=O)c1c(C)[nH]c(-c2ccc3cc[nH]c3c2)c1C
inhibition [3]: 79.5%

CCOc1ccc(-c2c(-c3nc4cc(N5CCN(C)CC5)ccc4[nH]3)[nH]c(C)c2C(C)=O)cc1
IC50 (MV4-11 [1]): 192 nM

CC(=O)c1c(C)[nH]c(-c2nc3cc(N4CCN(C)CC4)ccc3[nH]2)c1C
IC50 (MV4-11 [1]): 699 nM

CC(=O)c1c(C)[nH]c(-c2nc3cc(N4CCN(C)CC4)ccc3[nH]2)c1-c1ccccc1Cl
IC50 (MV4-11 [1]): 438 nM

COc1ccc(-c2c(-c3nc4cc(N5CCN(C)CC5)ccc4[nH]3)[nH]c(C)c2C(C)=O)cc1F
IC50 (MV4-11 [1]): 219 nM

CC(=O)c1c(C)[nH]c(-c2nc3cc(N4CCCCC4)ccc3[nH]2)c1C
IC50 (MV4-11 [1]): 1810 nM
